Test results from paper PMC8248439, “Activation, Structure, Biosynthesis and Bioactivity of Glidobactin‐like Proteasome Inhibitors from Photorhabdus laumondii” (Chembiochem, 2021).
Where two headings read alike, the source gives them in different places.

Legend:
Assay type in all cases: biochemical
[1] = target: T1, yeast 20S proteasome (yCP) β2 subunit (TL) (Saccharomyces cerevisiae, UniProt P25043); experiment: X-ray crystal structure ([…] Å), mM soaking; weaker TL inhibition
T1 construct: gene PUP1; yeast 20S proteasome core particle
T1 sequence (P25043 30-261): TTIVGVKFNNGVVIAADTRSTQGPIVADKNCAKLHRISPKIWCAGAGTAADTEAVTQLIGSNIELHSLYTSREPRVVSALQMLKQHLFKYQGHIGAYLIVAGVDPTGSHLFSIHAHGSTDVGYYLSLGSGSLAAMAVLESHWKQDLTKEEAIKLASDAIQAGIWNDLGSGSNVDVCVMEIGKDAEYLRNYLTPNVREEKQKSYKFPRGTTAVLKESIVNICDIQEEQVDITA

[2] = target: T2, yeast 20S proteasome (yCP) β5 subunit (ChTL) (Saccharomyces cerevisiae, UniProt P23724+P30656); experiment: X-ray crystal structure ([…] Å) and ChTL activity inhibition assay of yCP
T2 construct: gene PRE2; yeast 20S proteasome core particle; with β6 subunit of yCP
T2 sequence (P30656 76-287): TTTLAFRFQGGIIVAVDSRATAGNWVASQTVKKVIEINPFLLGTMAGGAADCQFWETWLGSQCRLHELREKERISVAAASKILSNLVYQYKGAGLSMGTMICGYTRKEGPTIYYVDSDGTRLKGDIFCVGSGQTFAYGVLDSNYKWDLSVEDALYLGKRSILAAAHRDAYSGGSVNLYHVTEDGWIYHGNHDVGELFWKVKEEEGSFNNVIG
T2 sequence (P23724 20-241): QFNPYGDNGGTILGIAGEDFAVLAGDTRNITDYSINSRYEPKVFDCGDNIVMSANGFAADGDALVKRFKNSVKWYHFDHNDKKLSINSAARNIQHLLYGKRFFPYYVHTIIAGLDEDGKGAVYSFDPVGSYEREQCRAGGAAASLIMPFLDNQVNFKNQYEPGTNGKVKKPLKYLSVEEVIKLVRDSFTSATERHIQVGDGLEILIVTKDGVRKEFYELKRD

[3] = target: T2, yeast 20S proteasome (yCP) β5 subunit (ChTL); experiment: as above; remark: listed apart in the source
[4] = target: T1, yeast 20S proteasome (yCP) β2 subunit (TL); experiment: X-ray crystal structure ([…] Å), mM soaking; weaker TL inhibition; remark: listed apart in the source

SMILES	IC50 [1]	IC50 [2]	IC50 [3]	IC50 [4]
CC1C=CC(=O)NCCC(O)CC(NC(=O)C(NC(=O)C=CC=Cc2ccccc2)C(C)O)C(=O)N1 (stereo not shown) [compound 4]	> 0.2 µM	0.073 µM		
CC1C=CC(=O)NCCC(O)CC(NC(=O)C(NC(=O)C=Cc2ccccc2)C(C)O)C(=O)N1 (stereo not shown) [compound 5]			0.107 µM	> 0.2 µM
